# Patent US7531502B2, “Diagnostic conjugate useful for intracellular imaging and for differentiating between tumor- and non-tumor cells” (Deutsches Krebsforschungszentrum Stiftung Des Offentlichen …, priority 2002, dated 2009)
# Tested on: HeLa cervix carcinoma cells
# Assay type: cell-based, human
# Procedure: (a) Kinetic Studies: HeLa-cell-Uptake of the Gd-complex-transporter [without Address-sequence or with Either Antisense (ACGT)- or Random-sequence (RCGT)] Compared to Magnevist®. Living HeLa-cells were harvested and divided into tubes (Falcon) (Cell No.: 20×10^6 cells per tube). The Gd-complex-transporter without address-sequence and the Magnevist® were each dissolved in MEM culture medium in a concentration of 100 pM and were then incubated for 10, 20, 30 and 60 minutes. […] T1 and T2 relaxation-times within the pellets of both tubes were measured to evaluate the intracellular relaxivity of the respective contrast agents (R=1/T1). The T1-relaxation time was measured by means of an inversion-recovery-sequence (TR: 5000 ms/TE: 76 ms/TI: 25-4000 ms, 15 different TI-values, scan-time 15×25 sec, FOV: 160 mm×160 mm, Matrix: 132×256, slice thickness: 7 mm, pixel size: 1.21×0.63 mm). T2 relaxation-time was measured by a multi-echo-sequence (TR: 5000 ms/16 TE-values: 30 ms−245 ms, FOV: 250 mm×250 mm, Matrix: 256×256, slice thickness: 5 mm, pixel size: 0.98×0.98 mm, scan time: 21 min 21 sec). […] This procedure was repeated hourly until no signal increase compared to the control tube (HeLa cells or lymphocytes in MEM medium without contrast agent) could be detected in T1 weighted sequences.
smiles,measurement,setting,value
"CNC[C@H](O)[C@@H](O)[C@H](O)[C@H](O)CO.CNC[C@H](O)[C@@H](O)[C@H](O)[C@H](O)CO.O=C([O-])CN(CCN(CC(=O)[O-])CC(=O)O)CCN(CC(=O)[O-])CC(=O)O.[Gd+3] [Magnevist®, reference compound]",MR signal change compared with HeLa cells incubated solely in MEM,"HeLa cells, 100 pM, 1 hour incubation",no signal change
same,relaxivity R (R=1/T1) within the HeLa-cell pellets,"HeLa-cell pellets after incubation, inversion-recovery T1 measurement",0.000995
